Source: publication PMC7377239, “Cardiovascular Effects of Polychlorinated Biphenyls and Their Major Metabolites” (Environmental Health Perspectives, 2020)
Like-named read-outs stand apart in the source and are kept apart here.

Columns and labels:
HUVECs = assay: Tube formation (tubulogenesis) assay in HUVECs, 18 h; assay type: cell-based, human; conditions: Homo sapiens, HUVEC, 18 h, HUVEC; for activity at 0.01 µM: concentration 0.01 µM; for activity at 0.1 µM: concentration 0.10 µM; for activity at 1 µM: concentration 1.00 µM; for activity at 10 µM: concentration 10.00 µM; for activity at 100 µM: concentration 100.00 µM
Method in brief: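 HUVECs (passage 1–5) seeded on reduced-growth-factor basement membrane and exposed to compounds overnight at 37°C, 5% CO2, in 2× maintenance medium with 12.5 ng/mL VEGF; 0.5% DMSO vehicle. Calcein AM-stained tube networks imaged and analysed; vehicle-normalized readouts fit to four-parameter logistic, POD set at one SD of vehicle means.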

[1] = system: iCell endothelial cells (human iPSC-derived ECs); assay: High-content imaging cytotoxicity in iCell endothelial cells, 24 h; assay type: cell-based; conditions: Homo sapiens, Endothelial cell; for viability at 0.1 µM / activity at 0.1 µM: 0.10 µM
Method in brief: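 Human iPSC-derived endothelial cells (passages 1–5) were grown to a fibronectin-coated monolayer, then exposed 24 h at 37 °C with 0.5% DMSO vehicle. Staining was Hoechst 33342, MitoTracker Orange and calcein AM, read by high-content imaging. Point of departure came from 4-parameter logistic fits, with a 1-SD vehicle cutoff and 100 µM as the top concentration.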

[2] = HUVECs tube formation, 0.00 µM = 100.00, read-out: huvec.mtl.18hr
[3] = HUVECs tube formation, 0.00 µM = 100.00, read-out: huvec.tlps.18hr
[4] = HUVECs tube formation, 0.00 µM = 100.00, read-out: huvec.tta.18hr
[5] = HUVECs tube formation, 0.00 µM = 100.00, read-out: huvec.ttl.18hr
[6] = iPSC-EC, 0.00 µM = 100.00, read-out: endo.cyto.24hr
[7] = iPSC-EC, 0.00 µM = 100.00, read-out: endo.mito.24hr
[8] = iPSC-EC, 0.00 µM = 100.00, read-out: endo.mitoint.24hr
[9] = iPSC-EC, 0.00 µM = 100.00, read-out: endo.nma.24hr
[10] = iPSC-EC, 0.00 µM = 100.00, read-out: endo.tc.24hrs

Clc1ccc(-c2cc(Cl)c(Cl)c(Cl)c2)cc1Cl [PCB 126, 3,3′,4,4′,5-pentachlorobiphenyl]
minimal effective concentration (HUVECs; tube formation mtl, read-out: POD huvec.mtl.18hr): 100 µM
minimal effective concentration (HUVECs; tube formation tlps, read-out: POD huvec.tlps.18hr): 100 µM
minimal effective concentration (HUVECs; tube formation tta, read-out: POD huvec.tta.18hr): 100 µM
minimal effective concentration (HUVECs; tube formation ttl, read-out: POD huvec.ttl.18hr): 100 µM
minimal effective concentration ([1]; endothelial cells (endo), cyto, 24 hr, read-out: POD endo.cyto.24hr): 0.33 µM
minimal effective concentration ([1]; endothelial cells (endo), mito, 24 hr, read-out: POD endo.mito.24hr): 0.33 µM
minimal effective concentration ([1]; endothelial cells (endo), mitoint, 24 hr, read-out: POD endo.mitoint.24hr): 10.2 µM
minimal effective concentration ([1]; endothelial cells (endo), nma, 24 hr, read-out: POD endo.nma.24hr): 100 µM
minimal effective concentration ([1]; endothelial cells (endo), tc, 24 hr, read-out: POD endo.tc.24hr): 0.34 µM

COc1cc(Cl)c(-c2cc(Cl)ccc2Cl)cc1Cl [4-OMe PCB52]
minimal effective concentration (HUVECs; HUVECs tube formation, MAX 100.00, read-out: huvec.mtl.18hr POD): 17.1 µM
minimal effective concentration (HUVECs; HUVECs tube formation, MAX 100.00, read-out: huvec.tlps.18hr POD): 14.2 µM
minimal effective concentration (HUVECs; HUVECs tube formation, MAX 100.00, read-out: huvec.tta.18hr POD): 100 µM
minimal effective concentration (HUVECs; HUVECs tube formation, MAX 100.00, read-out: huvec.ttl.18hr POD): 100 µM
activity at 0.01 µM (HUVECs; [2]): 105%
activity at 0.01 µM (HUVECs; [3]): 93.8%
activity at 0.01 µM (HUVECs; [4]): 98.5%
activity at 0.01 µM (HUVECs; [5]): 87.4%
activity at 0.1 µM (HUVECs; [2]): 95.6%
activity at 0.1 µM (HUVECs; [3]): 86.8%
activity at 0.1 µM (HUVECs; [4]): 80.4%
activity at 0.1 µM (HUVECs; [5]): 70.5%
activity at 1 µM (HUVECs; [2]): 109%
activity at 1 µM (HUVECs; [3]): 140%
activity at 1 µM (HUVECs; [4]): 102%
activity at 1 µM (HUVECs; [5]): 93.9%
activity at 10 µM (HUVECs; [2]): 94.7%
activity at 10 µM (HUVECs; [3]): 81.4%
activity at 10 µM (HUVECs; [4]): 92.9%
activity at 10 µM (HUVECs; [5]): 84.8%
activity at 100 µM (HUVECs; [2]): 59.2%
activity at 100 µM (HUVECs; [3]): 42.6%
activity at 100 µM (HUVECs; [4]): 75.1%
activity at 100 µM (HUVECs; [5]): 67.4%
viability at 0.01 µM [1, 6]: 104%
activity at 0.01 µM [1, 7]: 104%
activity at 0.01 µM [1, 8]: 88.9%
activity at 0.01 µM [1, 9]: 102%
viability at 0.01 µM [1, 10]: 104%
viability at 0.1 µM [1, 6]: 101%
activity at 0.1 µM [1, 7]: 101%
activity at 0.1 µM [1, 8]: 88%
activity at 0.1 µM [1, 9]: 102%
viability at 0.1 µM [1, 10]: 101%
viability at 1 µM [1, 6]: 104%
activity at 1 µM [1, 7]: 103%
activity at 1 µM [1, 8]: 84.8%
activity at 1 µM [1, 9]: 100%
viability at 1 µM [1, 10]: 104%
viability at 10 µM [1, 6]: 106%
activity at 10 µM [1, 7]: 106%
activity at 10 µM [1, 8]: 92.2%
activity at 10 µM [1, 9]: 99.7%
viability at 10 µM [1, 10]: 106%
viability at 100 µM [1, 6]: 53.2%
activity at 100 µM [1, 7]: 48.4%
activity at 100 µM [1, 8]: 74.5%
activity at 100 µM [1, 9]: 117%
viability at 100 µM [1, 10]: 56.6%
minimal effective concentration ([1]; iPSC-EC, 100.00 = highest concentration tested, read-out: endo.cyto.24hr POD): 43.5 µM
minimal effective concentration ([1]; iPSC-EC, 100.00 = highest concentration tested, read-out: endo.mito.24hr POD): 43.5 µM
minimal effective concentration ([1]; iPSC-EC, 100.00 = highest concentration tested, read-out: endo.mitoint.24hr POD): 100 µM
minimal effective concentration ([1]; iPSC-EC, 100.00 = highest concentration tested, read-out: endo.nma.24hr POD): 56.1 µM
minimal effective concentration ([1]; iPSC-EC, 100.00 = highest concentration tested, read-out: endo.tc.24hrs POD): 40.3 µM
